From patent US20190315823A1, “SMALL CATIONIC ANTI-BIOFILM AND IDR PEPTIDES” (priority 2013, published 2019)
Ends that are not written are not given here.

Legend:
[1] = tested on: LPS-stimulated human peripheral blood mononuclear cells (IL1-β); type: cell-based; conditions: Table 12, cells stimulated with 10 ng/ml LPS; for IL1β Production: LPS alone 1313 (HH2 derivatives), 1927 (1018 derivatives), 2455 (1002 and hybrid peptides) pg/ml
[2] = tested on: human peripheral blood mononuclear cells (MCP-1); experiment: SPOT-synthesized derivative screen: production of chemokine MCP-1; type: cell-based; conditions: Table 12, No LPS, human PBMC, peptide at ~18-24 μM; for MCP1: background subtracted 139 (HH2 derivatives), 170 (1018 derivatives), 242 (1002 and hybrid peptides) pg/ml
Outline: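 PBMC from heparinized healthy-donor venous blood, Ficoll-separated, cultured at 0.75 to 1×10^6 cells/ml, 37 °C, 5% CO2, under the treatment regimens. MCP-1 in cell-free supernatants measured by capture ELISA.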

[3] = tested on: methicillin resistant Staphylococcus aureus (MRSA) biofilm; conditions: approximate peptide concentration […] (around 3 μg/ml); compared to untreated samples
Outline: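 Static biofilm assay: 1/100 dilutions of overnight cultures grown in BM2 medium (pH 7, glucose, Casamino Acids) or Luria Broth with peptide added at time zero. After 22–46 h, adherent biofilm was stained with crystal violet and read at 595 nm. Some peptides were also tested on K. pneumoniae under flow in a Bioflux system.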

Row | Substance | Fold change in IL1β relative to no peptide LPS stimulated cells [1] | IL1β Production [1] [pg/mL] | Fold increase in MCP1 cf. untreated cells [2] | MCP1 [2] [pg/mL] | % Biofilm inhibition [3] [%]
1 | 1002-A4: single substituted 1002 peptide (VQRALIVWRIRK-NH2) [Peptide 1002-A4] | 0.27 | 655 | 0.9 | -36.2 | 52
2 | 1018-G6: single substituted 1018 peptide (VRLIVGVRIWRR-NH2) [Peptide 1018-G6] | 0.46 | 598 | 22 | 3560 | 36
3 | 1002-A11: single substituted 1002 peptide (VQRWLIVWRIAK-NH2) [Peptide 1002-A11] | 0.05 | 127 | 3.0 | 485.3 | 52
4 | HH2-A1: single substituted HH2 peptide (AQLRIRVAVIRA-NH2) | 1.21 | 1587 | 14 | 2254 | 56
5 | HH2-V4: single substituted HH2 peptide (VQLVIRVAVIRA-NH2) | 0.67 | 877 | 20 | 3216 | 60
6 | HH2-G11: single substituted HH2 peptide (VQLRIRVAVIGA-NH2) | 0.99 | 1303 | 2.0 | 177 | 72
7 | 1002-G9: single substituted 1002 peptide (VQRWLIVWGIRK-NH2) [Peptide 1002-G9] | 0.05 | 127 | 2.8 | 444.4 | 44
8 | HH2-R5: single substituted HH2 peptide (VQLRRRVAVIRA-NH2) | 1.66 | 2186 | 4.0 | 515 | 0
9 | 1002-A7: single substituted 1002 peptide (VQRWLIAWRIRK-NH2) [Peptide 1002-A7] | 0.05 | 132 | 0.9 | -36.2 | 58
10 | HH2-R12: single substituted HH2 peptide (VQLRIRVAVIRR-NH2) | 1.23 | 1618 | 51 | 8574 | 80
11 | HH2-R9: single substituted HH2 peptide (VQLRIRVARIRA-NH2) | 1.60 | 2099 | 3.4 | 406 | 65
12 | 1002-Q8: single substituted 1002 peptide (VQRWLIVQRIRK-NH2) [Peptide 1002-Q8] | 0.66 | 1608 | 0.9 | -36.2 | 20
13 | 1018-L9: single substituted 1018 peptide (VRLIVAVRLWRR-NH2) [Peptide 1018-L9] | 0.13 | 171 | 1.4 | 66 | 52
14 | 1018-I5: single substituted 1018 peptide (VRLIIAVRIWRR-NH2) [Peptide 1018-I5] | 0.10 | 127 | 13 | 2103 | 60
15 | HH2-K1: single substituted HH2 peptide (KQLRIRVAVIRA-NH2) | 1.08 | 1423 | 6.7 | 968 | 55
16 | HH2-Q5: single substituted HH2 peptide (VQLRQRVAVIRA-NH2) | 0.98 | 1284 | 4.5 | 603 | 25
17 | 1018-W6: single substituted 1018 peptide (VRLIVWVRIWRR-NH2) [Peptide 1018-W6] | 0.24 | 310 | 0.7 | -54 | 75
18 | 1002-K4: single substituted 1002 peptide (VQRKLIVWRIRK-NH2) [Peptide 1002-K4] | 0.43 | 1065 | 1.4 | 106.3 | 0
19 | HH2-V10: single substituted HH2 peptide (VQLRIRVAVVRA-NH2) | 1.06 | 1390 | 36 | 5929 | 68
20 | 1018-G1: single substituted 1018 peptide (GRLIVAVRIWRR-NH2) [Peptide 1018-G1] | 0.10 | 127 | 216 | 36611 | 38
21 | HH2-G3: single substituted HH2 peptide (VQGRIRVAVIRA-NH2) | 1.29 | 1687 | 1.7 | 117 | 21
22 | 1002-A3: single substituted 1002 peptide (VQAWLIVWRIRK-NH2) [Peptide 1002-A3] | 0.05 | 127 | 4.2 | 787.2 | 65
23 | 1018-L7: single substituted 1018 peptide (VRLIVALRIWRR-NH2) [Peptide 1018-L7] | 0.10 | 132 | 0.9 | -10 | 72
24 | 1002-I5: single substituted 1002 peptide (VQRWIIVWRIRK-NH2) [Peptide 1002-I5] | 0.08 | 186 | 24.2 | 5633.1 | 84
25 | 1002-V3: single substituted 1002 peptide (VQVWLIVWRIRK-NH2) [Peptide 1002-V3] | 0.05 | 127 | 2.5 | 359.1 | 49
26 | 1002-L3: single substituted 1002 peptide (VQLWLIVWRIRK-NH2) [Peptide 1002-L3] | 0.05 | 127 | 1.4 | 106.3 | 59
27 | HH2-V11: single substituted HH2 peptide (VQLRIRVAVIVA-NH2) | 1.15 | 1515 | 5.6 | 788 | 51
28 | HH2-G8: single substituted HH2 peptide (VQLRIRVGVIRA-NH2) | 1.02 | 1344 | 1.9 | 157 | 54
29 | 1002-I2: single substituted 1002 peptide (VIRWLIVWRIRK-NH2) [Peptide 1002-I2] | 0.05 | 127 | 3.1 | 508.6 | 70
30 | 1018-K11: single substituted 1018 peptide (VRLIVAVRIWKR-NH2) [Peptide 1018-K11] | 0.13 | 170 | 9.3 | 1419 | 68
